Assay results taken from patent US20150105252A1, “SUBSTITUTED PYRAZOLES AS HERBICIDES” (E I DU PONT DE NEMOURS AND COMPANY, priority 2013, published 2015).

Experiments:
deadnettle = experiment: Test D postemergence; format: in vivo, Lamium amplexicaule; settings: scale 0 to 100
Summary of the method: (§1)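 Pre: sown in silt loam, sprayed at once. Post: grown in peat-moss/vermiculite mix, sprayed at 1–4 leaves (2–18 cm). Formulation: non-phytotoxic solvent + surfactant. Read-out: visual 0–100 vs controls, 14–21 d.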

buckwheat, wild = experiment: Test D preemergence; format: in vivo, Polygonum convolvulus; settings: scale 0 to 100
Summary of the method: as §1

pigweed = experiment: Test D postemergence; format: in vivo, Amaranthus retroflexus; settings: scale 0 to 100
From the text: (§2) Seeds of plant species selected from bluegrass (annual bluegrass, Poa annua), blackgrass (Alopecurus myosuroides), canarygrass (littleseed canarygrass, Phalaris minor), chickweed (common chickweed, Stellaria media), galium (catchweed bedstraw, Galium aparine), bromegrass, downy (downy bromegrass, Bromus tectorum), field poppy (Papaver rhoeas), field violet (Viola arvensis), foxtail, green (green foxtail, Setaria viridis), deadnettle (henbit deadnettle, Lamium amplexicaule), ryegrass, Italian (Italian ryegrass, Lolium multiflorum), kochia (Kochia scoparia), lambsquarters (Chenopodium album), oilseed rape (Brassica napus), pigweed (redroot pigweed, Amaranthus retroflexus), chamomile (scentless chamomile, Matricaria inodora), speedwell (bird's-eye speedwell, Veronica persica), barley, spring (spring barley, Hordeum vulgare), wheat, spring (spring wheat, Triticum aestivum), buckwheat, wild (wild buckwheat, Polygonum convolvulus), mustard, wild (wild mustard, Sinapis arvensis), oat, wild (wild oat, Avena fatua), radish, wild (wild radish, Raphanus raphanistrum), windgrass (Apera spica-venti), Russian thistle (Salsola kali), barley, winter (winter barley, Hordeum vulgare), and wheat, winter (winter wheat, Triticum aestivum) were planted into a silt loam soil and treated preemergence with test chemicals formulated in a non-phytotoxic solvent mixture which included a surfactant.
(§3) At the same time, these species were planted in pots containing Redi-Earth® planting medium (Scotts Company, 14111 Scottslawn Road, Marysville, Ohio 43041) comprising spaghnum peat moss, vermiculite, wetting agent and starter nutrients and treated with postemergence applications of the test chemicals formulated in the same manner. Plants ranged in height from 2 to 18 cm (1- to 4-leaf stage). Treated plants and controls were maintained in a controlled growth environment for 14 to 21 days after which time all species were compared to controls and visually evaluated. Plant response ratings, summarized in Table D, are based on a scale of 0 to 100 where 0 is no effect and 100 is complete control. A dash (-) response means no test result.

lambsquarters = experiment: Test D preemergence; format: in vivo, Chenopodium album; settings: scale 0 to 100
From the text: as §2, §3

chickweed = experiment: Test D postemergence; format: in vivo, Stellaria media; settings: scale 0 to 100
From the text: as §2, §3

velvetleaf = experiment: Test F preemergence; format: in vivo, Abutilon theophrasti
From the text: (§4) Seeds of plant species selected from corn (Zea mays), soybean (Glycine max), velvetleaf (Abutilon theophrasti), lambsquarters (Chenopodium album), wild poinsettia (Euphorbia heterophylla), pigweed, palmer (palmer pigweed, Amaranthus palmeri), common waterhemp (Amaranthus rudis), surinam grass (Brachiaria decumbens), large crabgrass (Digitaria sanguinalis), crabgrass, Brazil (Brazilian crabgrass, Digitaria horizontalis), fall panicum (Panicum dichotomiflorum), giant foxtail (Setaria faberii), green foxtail (Setaria viridis), goosegrass (Eleusine indica), johnsongrass (Sorghum halepense), common ragweed (Ambrosia elation), barnyardgrass (Echinochloa crus-galli), southern sandbur (Cenchrus echinatus), arrowleaf sida (Sida rhombifolia), Italian ryegrass (Lolium multiflorum), dayflower, VA (Virginia (VA) dayflower, Commelina virginica), field bindweed (Convolvulus arvensis), cocklebur (common cocklebur, Xanthium strumarium), morningglory (Ipomoea coccinea), nightshade (eastern black nightshade, Solanum ptycanthum), kochia (Kochia scoparia), yellow nutsedge (Cyperus esculentus), and hairy beggarticks (Bidens pilosa), were planted into a silt loam soil and treated preemergence with test chemicals formulated in a non-phytotoxic solvent mixture which included a surfactant.
(§5) At the same time, plants from these crop and weed species and also horseweed (Canada horseweed, Conyza canadensis), smartweed (ladysthumb smartweed, Polygonum persicaria), waterhemp_RES1, (ALS & Triazine resistant common waterhemp, Amaranthus rudis), and waterhemp_RES2, (ALS & HPPD resistant common waterhemp, Amaranthus rudis) were treated with postemergence applications of test chemicals formulated in the same manner. Plants ranged in height from 2 to 18 cm for postemergence treatments (1- to 4-leaf stage). Treated plants and controls were maintained in a greenhouse for 14 to 21 days, after which time all species were compared to controls and visually evaluated. Plant response ratings, summarized in Table F, are based on a scale of 0 to 100 where 0 is no effect and 100 is complete control. A dash (-) response means no test result.

wild poinsettia = experiment: Test F preemergence; format: in vivo, Euphorbia heterophylla
From the text: as §4, §5

field poppy = experiment: Test D postemergence; format: in vivo, Papaver rhoeas; settings: scale 0 to 100
From the text: as §2, §3

ryegrass, Italian = experiment: Test D postemergence; format: in vivo, Lolium multiflorum; settings: scale 0 to 100
From the text: as §2, §3

pigweed, palmer = experiment: Test F preemergence; format: in vivo, Amaranthus palmeri
From the text: as §4, §5

fall panicum = experiment: Test F preemergence; format: in vivo, Panicum dichotomiflorum
From the text: as §4, §5

wheat, spring = experiment: Test D preemergence; format: in vivo, Triticum aestivum; settings: scale 0 to 100
Summary of the method: as §1

wheat, winter = experiment: Test D preemergence; format: in vivo, Triticum aestivum; settings: scale 0 to 100
Summary of the method: as §1

blackgrass = experiment: Test D preemergence; format: in vivo, Alopecurus myosuroides; settings: scale 0 to 100
Summary of the method: as §1

[1] = Preemergence, 31 g ai/ha, scale 0 to 100
[2] = Preemergence, 62 g ai/ha, scale 0 to 100
[3] = Preemergence, 125 g ai/ha, scale 0 to 100
[4] = preemergence, 8 g ai/ha, scale 0 to 100, 100 is complete control
[5] = preemergence, 16 g ai/ha, scale 0 to 100, 100 is complete control

CCc1cc(C(=O)NCC(F)(F)F)nn1Cc1ccnc(C(F)(F)F)c1 [Compound 78, 5-ethyl-N-(2,2,2-trifluoroethyl)-1-[[(2-trifluoromethyl)-4-pyridinyl]methyl]-1H-pyrazole-3-carboxamide]
Deadnettle plant response rating (deadnettle; Postemergence, 31 g ai/ha): 15
Deadnettle plant response rating (deadnettle; Postemergence, 125 g ai/ha): 35
Deadnettle plant response rating (deadnettle; Postemergence, 250 g ai/ha): 60
Deadnettle plant response rating (deadnettle; postemergence, 62 g ai/ha): 20
Plant response rating, Buckwheat, Wild (buckwheat, wild; 31 g ai/ha): 95
Plant response rating, Buckwheat, Wild (buckwheat, wild; 62 g ai/ha): 100
Plant response rating, Buckwheat, Wild (buckwheat, wild; 125 g ai/ha): 100
Plant response rating, Buckwheat, Wild (buckwheat, wild; 250 g ai/ha): 100
Pigweed plant response rating (pigweed; Postemergence, 31 g ai/ha): 70
Pigweed plant response rating (pigweed; Postemergence, 125 g ai/ha): 80
Pigweed plant response rating (pigweed; Postemergence, 250 g ai/ha): 85
Pigweed plant response rating (pigweed; postemergence, 62 g ai/ha): 75
Plant response rating, Lambsquarters (lambsquarters; 31 g ai/ha): 95
Plant response rating, Lambsquarters (lambsquarters; 62 g ai/ha): 100
Plant response rating, Lambsquarters (lambsquarters; 125 g ai/ha): 100
Plant response rating, Lambsquarters (lambsquarters; 250 g ai/ha): 100
Chickweed plant response rating (chickweed; Postemergence, 31 g ai/ha): 25
Chickweed plant response rating (chickweed; Postemergence, 125 g ai/ha): 70
Chickweed plant response rating (chickweed; Postemergence, 250 g ai/ha): 80
Chickweed plant response rating (chickweed; postemergence, 62 g ai/ha): 50
Plant response rating, Velvetleaf (velvetleaf; [1]): 10
Plant response rating, Velvetleaf (velvetleaf; [2]): 75
Plant response rating, Velvetleaf (velvetleaf; [3]): 95
Plant response rating, Velvetleaf (velvetleaf; [4]): 5
Plant response rating, Wild Poinsettia (wild poinsettia; [1]): 50
Plant response rating, Wild Poinsettia (wild poinsettia; [2]): 65
Plant response rating, Wild Poinsettia (wild poinsettia; [3]): 98
Plant response rating, Wild Poinsettia (wild poinsettia; [4]): 0
Plant response rating, Wild Poinsettia (wild poinsettia; [5]): 0
Field Poppy plant response rating (field poppy; Postemergence, 31 g ai/ha): 55
Field Poppy plant response rating (field poppy; Postemergence, 125 g ai/ha): 70
Field Poppy plant response rating (field poppy; Postemergence, 250 g ai/ha): 85
Field Poppy plant response rating (field poppy; postemergence, 62 g ai/ha): 65
Ryegrass, Italian plant response rating (ryegrass, Italian; Postemergence, 31 g ai/ha): 5
Ryegrass, Italian plant response rating (ryegrass, Italian; Postemergence, 125 g ai/ha): 10
Ryegrass, Italian plant response rating (ryegrass, Italian; Postemergence, 250 g ai/ha): 45
Ryegrass, Italian plant response rating (ryegrass, Italian; postemergence, 62 g ai/ha): 5
Plant response rating, Pigweed, Palmer (pigweed, palmer; [1]): 35
Plant response rating, Pigweed, Palmer (pigweed, palmer; [2]): 100
Plant response rating, Pigweed, Palmer (pigweed, palmer; [3]): 100
Plant response rating, Pigweed, Palmer (pigweed, palmer; [4]): 20
Plant response rating, Pigweed, Palmer (pigweed, palmer; [5]): 40
Plant response rating, Fall Panicum (fall panicum; [1]): 90
Plant response rating, Fall Panicum (fall panicum; [2]): 100
Plant response rating, Fall Panicum (fall panicum; [3]): 100
Plant response rating, Fall Panicum (fall panicum; [4]): 40
Plant response rating, Fall Panicum (fall panicum; [5]): 70
Plant response rating, Wheat, Spring (wheat, spring; 31 g ai/ha): 5
Plant response rating, Wheat, Spring (wheat, spring; 62 g ai/ha): 55
Plant response rating, Wheat, Spring (wheat, spring; 125 g ai/ha): 80
Plant response rating, Wheat, Spring (wheat, spring; 250 g ai/ha): 100
Plant response rating, Wheat, Winter (wheat, winter; 31 g ai/ha): 15
Plant response rating, Wheat, Winter (wheat, winter; 62 g ai/ha): 50
Plant response rating, Wheat, Winter (wheat, winter; 125 g ai/ha): 80
Plant response rating, Wheat, Winter (wheat, winter; 250 g ai/ha): 95
Plant response rating, Blackgrass (blackgrass; 31 g ai/ha): 35
Plant response rating, Blackgrass (blackgrass; 62 g ai/ha): 70
Plant response rating, Blackgrass (blackgrass; 125 g ai/ha): 80
Plant response rating, Blackgrass (blackgrass; 250 g ai/ha): 100
